Experiments:
Cavia porcellus [1] = organism: Cavia porcellus; experiment: Inhibitory contractile effect of compound in guinea-pig tracheal strips induced by LTD4 (100 nM) (% contraction, obtained in the vehicle presence 100.0%); assay type: functional, Trachea
Cavia porcellus [2] = organism: Cavia porcellus; experiment: Inhibitory contractile effect of compound in guinea-pig tracheal strips induced by LTD4 (100 nM) (% inhibition obtained by comparison with control group); assay type: functional, Trachea
Cavia porcellus [3] = organism: Cavia porcellus; experiment: 50% inhibitory concentration on the LTD4 (100 nM) induced contraction of guinea-pig tracheal strip bioassay; assay type: functional; conditions: Trachea
Cavia porcellus [4] = organism: Cavia porcellus; experiment: Maximum effect on the LTD4 (100 nM) induced contraction of guinea-pig tracheal strips bioassay; assay type: functional; conditions: Trachea

Structure (SMILES): O=C(O)CCCCOc1ccc(CCN2C(=O)c3ccccc3C2=O)cc1
- Contraction (Cavia porcellus [1]): 97.6%
- Inhibition (Cavia porcellus [2]): 2.4%

Structure (SMILES): O=C(O)COc1ccc(CCN2C(=O)c3ccccc3C2=O)cc1
- Contraction (Cavia porcellus [1]): 101.5%
- Inhibition (Cavia porcellus [2]): -1.5%

Structure (SMILES): O=C(O)CCCC(=O)Oc1ccc(CCN2C(=O)c3ccccc3C2=O)cc1
- Contraction (Cavia porcellus [1]): 73.9%
- Inhibition (Cavia porcellus [2]): 26.1%

Structure (SMILES): COc1cc(C(=O)NS(=O)(=O)c2ccccc2C)ccc1Cc1cn(C)c2ccc(NC(=O)OC3CCCC3)cc12 [ZAFIRLUKAST]
- IC50 (Cavia porcellus [3]): 0.00103 µM

Structure (SMILES): O=C(O)CCCOc1ccc(CCN2C(=O)c3ccccc3C2=O)cc1
- Contraction (Cavia porcellus [1]): 80.3%
- Inhibition (Cavia porcellus [2]): 19.7%

Structure (SMILES): CC(Oc1ccc(CCN2C(=O)c3ccccc3C2=O)cc1)C(=O)O (configuration not stated)
- Contraction (Cavia porcellus [1]): 91.4%
- Inhibition (Cavia porcellus [2]): 8.6%

Structure (SMILES): O=C1c2ccccc2C(=O)N1CCc1ccc(OCCCc2nn[nH]n2)cc1
- Emax (Cavia porcellus [4]): 100%
- IC50 (Cavia porcellus [3]): 31.2 µM
- Contraction (Cavia porcellus [1]): 52.4%
- Inhibition (Cavia porcellus [2]): 47.6%

Structure (SMILES): O=C(O)c1ccc(COc2ccc(CCN3C(=O)c4ccccc4C3=O)cc2)cc1
- Contraction (Cavia porcellus [1]): 93.7%
- Inhibition (Cavia porcellus [2]): 6.3%
